In patent US9339038B2, “Herbicidal composition” (priority 2012, dated 2016):
Counter-ions that a name gives are not always drawn.

Assays:
Assay type in all cases: in vivo
[1] = system: green kyllinga (Kyllinga brevifolia Rottb. var. leiolepis); assay: Test Example 1: foliar treatment of potted green kyllinga in heading stage, visual growth inhibition rate
From the text: When the herbicidal activity in a case where two active ingredients are combined, is larger than the simple sum of the respective herbicidal activities of the two active ingredients (the expected activity), it is called a synergistic effect. The activity expected by the combination of two active ingredients can be calculated as follows (Colby S. R., “Weed”, vol. 15, p. 20-22, 1967). E=(α+β)−(αβ)/100 where α: growth inhibition rate when treated with x (g/ha) of herbicide X,
β: growth inhibition rate when treated with y (g/ha) of herbicide Y,
E: growth inhibition rate expected when treated with x (g/ha) of herbicide X and y (g/ha) of herbicide Y.
That is, when the actual growth inhibition rate (measured value) is larger than the growth inhibition rate by the above calculation (calculated value), the activity by the combination can be regarded as showing a synergistic effect.
Upland field soil was put into a 1/1,000,000 ha pot, and rhizomes of green kyllinga (Kyllinga brevifolia Rottb. var. leiolepis) were planted. On the 59th day after planting, to the green kyllinga in heading stage, predetermined amounts of EC formulation containing pyridate as an active ingredient (tradename: Pyridate 600EC, manufactured by BCP), WG formulation containing flazasulfuron as an active ingredient (tradename: SHIBAGEN DF, manufactured by Ishihara Sangyo Kaisha, Ltd.), WG formulation containing trifloxysulfuron Na salt as an active ingredient (tradename: Monument WG, manufactured by Syngenta Japan K.K.), SC formulation containing nicosulfuron as an active ingredient (tradename: ONEHOPE NYUZAI, manufactured by Ishihara Sangyo Kaisha, Ltd.), WG formulation containing halosulfuron-methyl as an active ingredient (tradename: INPOOL DF, manufactured by Nissan Chemical Industries, Ltd.) and WG formulation containing chlorimuron-ethyl as an active ingredient (tradename: ATTRACTIVE, manufactured by MARUWA Biochemical Co., Ltd.) were diluted with water in an amount corresponding to 2,000 L/ha, and applied for foliar treatment by a small sprayer.
On the 14th day after treatment, the state of growth of the green kyllinga was visually observed to determine the growth inhibition rate (%) in accordance with the following evaluation standard. The growth inhibition rate (%) (measured value) and the growth inhibition rate (%) (calculated value) calculated by the Colby's formula are shown in Table 1.
Growth inhibition rate (%)=0 (equivalent to the non-treated area) to 100 (complete kill)

[2] = system: summer grass (Digitaria ciliaris (Retz.) Koeler); assay: Test Example 7: foliar treatment of potted summer grass, visual growth inhibition rate on 7th day; settings: 7th day after treatment
Experimental: (§1) Upland field soil was put into a 1/1,000,000 ha pot, and seeds of summer grass (Digitaria ciliaris (Retz.) Koeler) were sown. When the summer grass reached 4.0 to 5.0-leaf stage, predetermined amounts of EC formulation containing pyridate as an active ingredient and Monument WG (tradename) were diluted with water (in an amount corresponding to 300 L/ha) and applied for foliar treatment by a small sprayer.
(§2) On the 7th day after treatment, the state of growth of the summer grass was visually observed to determine the growth inhibition rate (%). The growth inhibition rate (%) (measured value) and the growth inhibition rate (%) calculated in the same manner as in the above Test Example 1 are shown in Table 7.

[3] = system: summer grass (Digitaria ciliaris (Retz.) Koeler); assay: Test Example 8: foliar treatment of potted summer grass, visual growth inhibition rate on 14th day; settings: read-out: Growth inhibition rate (%) of summer grass Measured value
From the text: Upland field soil was put into a 1/1,000,000 ha pot, and seeds of summer grass (Digitaria ciliaris (Retz.) Koeler) were sown.

[4] = system: persian speedwell (Veronica persica Poir.); assay: Test Example 6: foliar treatment of potted persian speedwell, visual growth inhibition rate; settings: 14th day after treatment, read-out: Growth inhibition rate (%) of persian speedwell Measured value
Experimental: as §1, with “persian speedwell (Veronica persica Poir.)” for “summer grass (Digitaria ciliaris (Retz.) Koeler)”, “persian speedwell” for “summer grass”, “4.3” for “4.0”, “5.2-leaf” for “5.0-leaf”, “ONEHOPE NYUZAI” for “Monument WG”
as §2, with “14th” for “7th”, “persian speedwell” for “summer grass”, “6.” for “7.”

[5] = system: green kyllinga (Kyllinga brevifolia Rottb. var. leiolepis); assay: Test Example 4: single or repeated foliar treatment of green kyllinga (height 5 to 7 cm), visual growth inhibition rate; settings: Cyperus brevifolius, 21st day after first treatment
Experimental: (§3) Upland field soil was put into a 1/1,000,000 ha pot, and rhizomes of green kyllinga (Kyllinga brevifolia Rottb. var. leiolepis) were planted. When the green kyllinga reached a height of from 5 to 7 cm, a predetermined amount of EC formulation containing pyridate as an active ingredient was diluted with water (in an amount corresponding to 2,000 L/ha) and applied for foliar treatment by a small sprayer. Further, on the 7th day after the foliar treatment, second treatment was carried out in the same manner on part of the green kyllinga.
On the 21st day after the first treatment, the state of growth of the green kyllinga was visually observed to determine the growth inhibition rate (%).

[6] = system: green kyllinga (Kyllinga brevifolia Rottb. var. leiolepis); assay: Test Example 3: foliar treatment of green kyllinga at 5-leaf stage, visual growth inhibition rate; settings: Cyperus brevifolius, 21st day after treatment
Experimental: as §3, with “5-leaf stage,” for “a height of from 5 to 7 cm,”, “sprayer.” for “sprayer. Further, on the 7th day after the foliar treatment, second treatment was carried out in the same manner on part of the green kyllinga.”
On the 21st day after treatment, the state of growth of the green kyllinga was visually observed to determine the growth inhibition rate (%).

[7] = system: green kyllinga (Kyllinga brevifolia Rottb. var. leiolepis); assay: Test Example 5: autumn foliar treatment of green kyllinga, visual growth inhibition rate on 220th day; settings: Cyperus brevifolius, 220th day after treatment
Experimental: Upland field soil was put into a 1/300,000 ha pot, and rhizomes of green kyllinga (Kyllinga brevifolia Rottb. var. leiolepis) were planted. In the autumn of the next year, a predetermined amount of EC formulation containing pyridate as an active ingredient was diluted with water (in an amount corresponding to 2,000 L/ha) and applied for foliar treatment by a small sprayer.
On the 220th day after treatment, the state of growth of the green kyllinga was visually observed to determine the growth inhibition rate (%).

[8] = system: manilagrass (Zoysia matrella (L.) Merr.); assay: Test Example 10: foliar treatment of manilagrass turf, visual growth inhibition rate (safety for turfgrass); settings: for Growth inhibition rate (%) of manilagrass: foliar, 28th day after treatment
Experimental: (§4) Upland field soil was put into a 1/1,000,000 ha pot, and rhizomes of green kyllinga (Kyllinga brevifolia Rottb. var. leiolepis) were planted. When the green kyllinga reached a height of from 6 to 7 cm, predetermined amounts of Lentagran WP (tradename) and WG formulation containing as an active ingredient amicarbazone having the same mode of action as pyridate (tradename: Dinamic, manufactured by Arysta Life Science) were diluted with water (in an amount corresponding to 2,000 L/ha) and applied for foliar treatment by a small sprayer. Separately, upland field soil was put into a 1/300,000 ha pot, and turf of manilagrass (Zoysia matrella (L.) Merr.) was put. After the manilagrass took root, predetermined amounts of Lentagran WP (tradename) and Dinamic (tradename) were diluted with water (in an amount corresponding to 2,000 L/ha) and applied for foliar treatment by a small sprayer.
(§5) On the 27th day after treatment, the state of growth of green kyllinga was visually observed, and on the 28th day after treatment, the state of growth of the manilagrass was visually observed, to determine the growth inhibition rate (%).

[9] = system: prickly sida (Sida spinosa L.); assay: Test Example 2: foliar treatment of potted prickly sida, visual growth inhibition rate; settings: 14th day after treatment, read-out: Growth inhibition rate (%) of prickly sida Measured value
Experimental: Upland field soil was put into a 1/1,000,000 ha pot, and seeds of prickly sida (Sida spinosa L.) were sown. When the prickly sida reached 5.5 to 5.8-leaf stage, predetermined amounts of a wettable powder containing pyridate as an active ingredient (tradename: Lentagran WP, manufactured by BCP) and ONEHOPE NYUZAI (tradename) were diluted with water in an amount of corresponding to 1,000 L/ha and applied for foliar treatment by a small sprayer.
as §2, with “14th” for “7th”, “prickly sida” for “summer grass”, “2.” for “7.”

[10] = system: green kyllinga (Kyllinga brevifolia Rottb. var. leiolepis); assay: Test Example 10: foliar treatment of green kyllinga (height 6 to 7 cm), visual growth inhibition rate; settings: 27th day after treatment
Experimental: as §4, §5

[11] = Cyperus brevifolius, read-out: Growth inhibition rate (%) of green kyllinga Measured value

**Q.** Which results are given for `COc1cc(OC)nc(NC(=O)NS(=O)(=O)c2ncccc2OCC(F)(F)F)n1` [Trifloxysulfuron Na salt]?
**A.** Growth inhibition rate (%) of green kyllinga Measured value ([1]; dose 45 g/ha, 14th day after treatment): 15%; Growth inhibition rate (%) of summer grass Measured value ([2]; dose 100 g/ha): 40%

**Q.** `COC(=O)c1c(Cl)nn(C)c1S(=O)(=O)NC(=O)Nc1nc(OC)cc(OC)n1` [Halosulfuron-methyl, halosulfuron-methyl] was tested. Which inhibition at 150 g/ha [3] did it give?
**A.** 0%

**Q.** And the inhibition at 375 g/ha [1, 11]?
**A.** 10%

**Q.** What does the source list for `CCCCCCCCSC(=O)Oc1cc(Cl)nnc1-c1ccccc1` [Pyridate, O-6-chloro-3-phenylpyridazin-4-yl S-octylthiocarbonate]?
**A.** inhibition at 3000 g/ha ([3]; dose 3000 g/ha, 14th day after treatment): 50%; inhibition at 500 g/ha ([1]; Cyperus brevifolius, dose 500 g/ha, 14th day after treatment, read-out: Growth inhibition rate (%) of green kyllinga Measured value): 18%; inhibition at 2000 g/ha ([1]; Cyperus brevifolius, dose 2000 g/ha, 14th day after treatment, read-out: Growth inhibition rate (%) of green kyllinga Measured value): 50%; inhibition at 300 g/ha ([4]; dose 300 g/ha): 70%; inhibition at 300 g/ha ([2]; Digitaria ciliaris, dose 300 g/ha, read-out: Growth inhibition rate (%) of summer grass Measured value): 8%; inhibition at 1200 g/ha ([5]; 1st treatment 1200 g/ha, 2nd treatment 1200 g/ha on 7th day): 100%; inhibition at 2400 g/ha ([5]; 1st treatment 2400 g/ha, no 2nd treatment): 87%; inhibition at 3600 g/ha ([5]; 1st treatment 3600 g/ha, no 2nd treatment): 89%; inhibition at 1200 g/ha ([6]; dose 1200 g/ha): 90%; inhibition at 2400 g/ha ([6]; dose 2400 g/ha): 100%; inhibition at 2000 g/ha ([7]; dose 2000 g/ha): 100%; inhibition at 4000 g/ha ([7]; dose 4000 g/ha): 100%; Growth inhibition rate (%) of manilagrass ([8]; dose 2000 g/ha): 5%; Growth inhibition rate (%) of manilagrass ([8]; dose 4000 g/ha): 15%; Growth inhibition rate (%) of manilagrass ([8]; dose 8000 g/ha): 15%; safety for turfgrass ([8]; practical doses, summary of Table 9): high safety for turfgrass; inhibition at 300 g/ha ([9]; dose 300 g/ha): 38%; inhibition at 2000 g/ha ([10]; Cyperus brevifolius, dose 2000 g/ha): 76%; inhibition at 4000 g/ha ([10]; Cyperus brevifolius, dose 4000 g/ha): 94%

**Q.** With `CCOC(=O)c1ccccc1S(=O)(=O)NC(=O)Nc1nc(Cl)cc(OC)n1` [Chlorimuron-ethyl, chlorimuron-ethyl] as the compound, how does the inhibition at 100 g/ha [1, 11] read?
**A.** 18%

**Q.** What does the source list for `CC(C)c1nn(C(=O)NC(C)(C)C)c(=O)n1N` [Amicarbazone, amicarbazone]?
**A.** Growth inhibition rate (%) of manilagrass ([8]; dose 800 g/ha): 30%; Growth inhibition rate (%) of green kyllinga ([10]; dose 400 g/ha): 30%; Growth inhibition rate (%) of green kyllinga ([10]; dose 800 g/ha): 86%

**Q.** For `COc1cc(OC)nc(NC(=O)NS(=O)(=O)c2ncccc2C(=O)N(C)C)n1` [Nicosulfuron, 2-(4,6-dimethoxypyrimidin-2-ylcarbamoylsulfamoyl)-N,N-dimethylnicotinamide], which inhibition at 80 g/ha ([1]; Cyperus brevifolius, dose 80 g/ha, 14th day after treatment, read-out: Growth inhibition rate (%) of green kyllinga Measured value) is on record?
**A.** 15%

**Q.** What about the inhibition at 100 g/ha ([4]; dose 100 g/ha) of the same compound?
**A.** 5%

**Q.** What about the inhibition at 15 g/ha ([9]; dose 15 g/ha) of the same compound?
**A.** 30%

**Q.** How did the inhibition at 50 g/ha ([1]; Cyperus brevifolius, dose 50 g/ha, 14th day after treatment, read-out: Growth inhibition rate (%) of green kyllinga Measured value) turn out when `COc1cc(OC)nc(NC(=O)NS(=O)(=O)c2ncccc2C(F)(F)F)n1` [Flazasulfuron, 1-(4,6-dimethoxypyrimidin-2-yl)-3-(3-trifluoromethyl-2-pyridylsulfonyl)urea] was run?
**A.** 33%
